Results published in US6166290A, “Glutathione-S-conjugate transport in plants” (The Trustees of the University of Pennsylvania, priority 1997, dated 2000).

System: vacuolar membrane vesicles purified from DTY167 cells (ycf1Δ mutant)
Assay type: biochemical, Saccharomyces cerevisiae
Procedure, shortened: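 ATP-dependent [3H]DNP-GS (66.2 μM) transport measured by filtration and scintillation counting of Ficoll-purified yeast vacuolar vesicles (DTY165 wild type; DTY167 ycf1Δ), 1–60 min at 25 °C in sorbitol/Tris-Mes pH 8.0 with 3 mM ATP, 3 mM MgSO4 and gramicidin-D. Nonenergized uptake without ATP/Mg2+.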

SMILES: N[C@@H](CCC(=O)N[C@@H](CSc1ccc([N+](=O)[O-])cc1[N+](=O)[O-])C(=O)NCC(=O)O)C(=O)O [DNP-GS, S-(2,4-dinitrophenyl)glutathione]
- initial rate of DNP-GS uptake (3 mM MgATP, 66.2 μM DNP-GS): 1.7 nmol/mg/min
- DNP-GS uptake, control (Table 1: 66.2 μM DNP-GS, 3 mM MgATP, no addition): 15.4 ± 0.4 nmol/mg/10 minutes
- MgATP-dependent, uncoupler-insensitive DNP-GS uptake, control (Table 2: 5 μM gramicidin D, no compound): 6.5 ± 0.8 nmol/mg/10 minutes
